Results published in paper PMC5897276, “External radiation exposure, excretion, and effective half-life in ^177Lu-PSMA-targeted therapies” (EJNMMI Research, 2018).
Values joined by “and” are separate entries in the source; they are usually repeats but may differ in a detail not shown here. Identical values can stand only once. Marks after values point to notes of the source that are not given here.

Assays:
[1] = Estimation of dose to the public after discharge of the patient (Eq. 4); assay type: in vivo, patients
From the text: The determination of the expected dose D to the public requires knowledge of the dose rate DR at the time point of the release of the patient and of the effective half-life T1/2eff. The dose D can then be calculated according to the following equation:4 D=DR∙T1/2eff/ln2.
This equation was originally recommended by the German Commission on Radiological Protection to conservatively estimate the dose to the public after iodine-131 therapy.
(§1) The data were fitted by a mono-exponential curve, and the effective half-life was calculated for the different time points: 24, 48, and 72 h (only from the data of Department 2). […] For all comparisons, the time point 48 h was chosen as the reference, because it is standard that the patients are released from the therapy ward after 48 h. Subsequently, Eq. 4 was used to determine the dose D to the public after the discharge of the patient for different time points of release (24, 48, and 72 h p. i.), substituting T1/2eff by T1/2ind (individual half-life of each patient), T1/2phys (physical half-life of ^177Lu), and T1/2max (maximum of the calculated effective half-life of the patient cohort) for different calculations. In addition, a correlation analysis (Spearman and Pearson) of the dose rate and administered activity was performed.

[2] = Whole-body dose rate measurement at a distance of 2 m and calculation of effective half-life; assay type: in vivo, patients; conditions: for Calculated effective half-life T1/2eff, max / Calculated effective half-life T1/2eff, mean / Calculated effective half-life T1/2eff, min: mono-exponential fit of dose rate
Description: The measurements and analyses were carried out with 50 patients from both departments as characterized in Table 1. All patients of Department 2 were released from the hospital 72 h p. i. for organizational reasons. Therefore, dose rate measurements were also available for ti = 72 h p. i.
In both departments, the dose rate monitor LB 123 D-H10 (Berthold Technologies, Bad Wildbad, Germany) was used, which is suitable for dose rate levels between 0.05 μSv/h and 10 mSv/h within an energy range from 30 keV to 1.3 MeV. The systems were officially calibrated, and regular quality checks were carried out. The patients were measured in the standing position from the anterior (DRA) and posterior (DRP) view at a distance of 2 m from the surface of the detector. The dose rate DR for different time points (see Table 1) was then calculated as the geometric mean of both measurements5 DRti=DRAti∙DRPti.
as §1

[3] = discharge 72 h p. i., T1/2ind, 25 patients (Department 2)
[4] = discharge 72 h p. i., T1/2max, 25 patients (Department 2)
[5] = discharge 72 h p. i., T1/2phys, 25 patients (Department 2)
[6] = time point 24.2 ± 0.7 h (from 2 h/4 h and 24 h)
[7] = time point 67.7 ± 2.3 h (72 h; from 24, 48 and 72 h), 25 patients (Department 2)
[8] = time point 45.7 ± 2.1 h p. i. (48 h)
[9] = time point 67.7 ± 2.3 h p. i. (72 h), 25 patients (Department 2)

O=C([O-])CN1CCN(CC(=O)[O-])CCN(CC(=O)NCC2CCC(C(=O)N[C@@H](Cc3ccc4ccccc4c3)C(=O)NCCCC[C@H](NC(=O)N[C@@H](CCC(=O)O)C(=O)O)C(=O)O)CC2)CCN(CC(=O)[O-])CC1.[177Lu+3] (some centres unmarked) [^177Lu-PSMA-617]
Estimated dose to the public after 1 cycle, min ([1]; discharge 24 h p. i., T1/2max): 75 μSv
Estimated dose to the public after 1 cycle, max ([1]; discharge 24 h p. i., T1/2phys): 779 μSv
Estimated dose to the public after 1 cycle, mean ([1]; discharge 24 h p. i., T1/2phys): 396 μSv
Estimated dose to the public after 1 cycle, min ([1]; discharge 24 h p. i., T1/2phys): 142 μSv
Estimated dose to the public after 1 cycle, min ([1]; discharge 48 h p. i., T1/2ind): 13 μSv
Estimated dose to the public after 1 cycle, max ([1]; discharge 48 h p. i., T1/2max): 294 μSv
Estimated dose to the public after 1 cycle, mean ([1]; discharge 48 h p. i., T1/2max): 139 μSv
Estimated dose to the public after 1 cycle, min ([1]; discharge 48 h p. i., T1/2max): 49 μSv
Estimated dose to the public after 1 cycle, max ([1]; discharge 48 h p. i., T1/2phys): 560 μSv
Estimated dose to the public after 1 cycle, mean ([1]; discharge 48 h p. i., T1/2phys): 263 μSv
Estimated dose to the public after 1 cycle, min ([1]; discharge 48 h p. i., T1/2phys): 93 μSv
Estimated dose to the public after 1 cycle, max [1, 3]: 204 μSv
Estimated dose to the public after 1 cycle, mean [1, 3]: 50 μSv
Estimated dose to the public after 1 cycle, min [1, 3]: 17 μSv
Estimated dose to the public after 1 cycle, max [1, 4]: 233 μSv
Estimated dose to the public after 1 cycle, mean [1, 4]: 105 μSv
Estimated dose to the public after 1 cycle, min [1, 4]: 49 μSv
Estimated dose to the public after 1 cycle, max [1, 5]: 443 μSv
Estimated dose to the public after 1 cycle, mean [1, 5]: 200 μSv
Estimated dose to the public after 1 cycle, min [1, 5]: 93 μSv
Expected dose to the public per cycle of therapy ([1]; human, in vivo): below 1 mSv
Maximum dose to individual members of the public per treatment cycle ([1]; patient discharged after 72 h): ~ 190 ± 36 μSv
Estimated dose to the public per cycle ([1]; physical half-life of lutetium-177 used for the calculation (conservative approach)): below 1 mSv
Calculated effective half-life T1/2eff, max [2, 6]: 73.5 h
Calculated effective half-life T1/2eff, mean [2, 6]: 26.0 h
Calculated effective half-life T1/2eff, min [2, 6]: 11.0 h
Calculated effective half-life T1/2eff, min ([2]; time point 45.7 ± 2.1 h (48 h; from 24 h and 48 h)): 21.7 h
Calculated effective half-life T1/2eff, max [2, 7]: 74.5^a h
Calculated effective half-life T1/2eff, mean [2, 7]: 38.4^a h
Calculated effective half-life T1/2eff, min [2, 7]: 25.7^a h
Dose rate (measured at a distance of 2 m), max ([2]; time point 2 ± 0.3 h p. i.): 5.0 μSv/h
Dose rate (measured at a distance of 2 m), mean ([2]; time point 2 ± 0.3 h p. i.): 3.6 ± 0.7 μSv/h and 3.6 μSv/h
Dose rate (measured at a distance of 2 m), min ([2]; time point 2 ± 0.3 h p. i.): 2.2 μSv/h
Dose rate (measured at a distance of 2 m), max ([2]; time point 3.9 ± 0.7 h p. i.): 3.8 μSv/h
Dose rate (measured at a distance of 2 m), mean ([2]; time point 3.9 ± 0.7 h p. i.): 2.8 μSv/h
Dose rate (measured at a distance of 2 m), min ([2]; time point 3.9 ± 0.7 h p. i.): 1.3 μSv/h
Dose rate (measured at a distance of 2 m), mean ([2]; time point 24.2 ± 0.7 h p. i.): 1.6 ± 0.6 μSv/h and 1.6 μSv/h
Dose rate (measured at a distance of 2 m), min ([2]; time point 24.2 ± 0.7 h p. i.): 0.5 μSv/h
Dose rate (measured at a distance of 2 m), max [2, 8]: 2.3 μSv/h
Dose rate (measured at a distance of 2 m), mean [2, 8]: 1.1 ± 0.5 μSv/h and 1.1 μSv/h
Dose rate (measured at a distance of 2 m), min [2, 8]: 0.4 μSv/h
Dose rate (measured at a distance of 2 m), max [2, 9]: 2.1^a μSv/h
Dose rate (measured at a distance of 2 m), mean [2, 9]: 0.7 ± 0.4 μSv/h and 0.7^a μSv/h
Dose rate (measured at a distance of 2 m), min [2, 9]: 0.1^a μSv/h
